The source of these data is PubChem BioAssay (NCI).

SMILES strings stand for the structures. “And” between values parts separate entries of the source, which are not always exact repeats. Identical values can stand only once.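 Briefly, cells in 96-well plates were exposed to five compound concentrations for 48 h, and endpoints were estimated by linear interpolation. GI50 = concentration required for 50% inhibition of growth. TGI is the concentration that stops growth completely.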

The first test deals with OVCAR-3 ovarian. The test is described as follows: growth of human tumour cells (NCI), 48 h.
In turn, `CC1(Cl)C(=O)NC(=O)N(C2CC(N=[N+]=[N-])C(CO)O2)C1N=[N+]=[N-]` (stereo unspecified) returned a TGI greater than 100 µM.
Same read-out and setting: for `COc1ccc2ccc3c(c2c1)CN1CCc2cc(OC)c(OC)cc2C1C3` (stereo unspecified) the value was greater than 100 µM; for `Cc1nc2cccc([N+](=O)[O-])c2c(NCCCN(C)C)c1C`, greater than 63.9 µM; for `OCCC1(O)CCC(O)CC1` (stereo unspecified), greater than 100 µM.
The same measure, in the same setting: under `CCCCNC1=C(C(=O)OCC)C(=O)CO1` stands greater than 100 µM.
Turning to `CC(C)CC(=O)[O-].CC(C)CC(=O)[O-].N.N.N.N.[Co+3].[O-][Cl+3]([O-])([O-])[O-]`, the GI50 was greater than 100 µM and the TGI is greater than 100 µM.
In turn, `COC(=O)CC(=O)C[P+](c1ccccc1)(c1ccccc1)c1ccccc1` came in with a TGI greater than 218 µM.
Still for that read-out and setting: under `CCCCN(CCCC)C(=O)C(=O)C(C#N)c1ccc(C)cc1` (stereo unspecified) stands greater than 100 µM.
Same read-out and setting: for `Cc1ccc(S(=O)(=O)C(CC(=O)N2CCCC2)C(=O)c2ccccc2)cc1` (stereo unspecified) the value was greater than 100 µM; for `CC1(C)CC(/C=C2/OC(=O)c3ccccc32)=C(C#N)C(=O)O1`, greater than 100 µM.
With `Cc1nc2c(nc1Cl)nc(Oc1ccc(Cl)cc1)c1ccccc12`, the TGI was greater than 100 µM.
The same measure, in the same setting: under `CC(=O)Nc1ccccc1Sc1ccccc1` stands greater than 100 µM.
Same read-out and setting: under `COC(=O)C[C@H]1CCC2(OCCO2)[C@]1(C)C(=O)OC` stands greater than 100 µM.
The same measure, in the same setting: under `CCCCCCCCCC[C@@H](O)[C@@H]1CC[C@H]([C@H]2CC[C@@H]([C@@H](O)CCCCCCCCCC[C@H]3CC(CC(C)=O)C(=O)O3)O2)O1` (stereo partly specified) stands 17.8 µM.
Regarding `C=C(CN1CCc2ccccc2C1)c1ccc(C(=O)Nc2cnccn2)cc1`, the GI50 was 22.1 µM and the TGI came to 62.6 µM.
As for `CCOc1ccc2c(c1)[n+]([O-])c(S(=O)(=O)c1ccc(C)cc1)c(N)[n+]2[O-]`, the TGI is greater than 100 µM.
Same read-out and setting: under `CC12CC[C@@H](C(C)(C)O)C1[C@@H](O)CC1(C)C2CCC2[C@@]3(C)CC[C@H](O)C(C)(C)C3C(O)C[C@]21C` (stereo partly specified) stands 35.3 µM.
Same read-out and setting: for `CCOC(=O)NC(=O)c1cn(C2OC(COC(=O)CCCCCCCCC(=O)OCC3OC(n4cc(C(=O)NC(=O)OCC)c(=O)[nH]c4=O)C(O)C3O)C(O)C2O)c(=O)[nH]c1=O` (stereo unspecified) the value was greater than 100 µM; for `Cc1ccc(C)c(NC(=O)CC/C(=N\NC(=O)C(=O)NN)C(C)C(=O)c2ccc(O)cc2)c1` (stereo unspecified), greater than 100 µM; for `N=C1CSC2=NC3=C(CCC/C3=C\c3ccccc3)C(c3ccccc3)N12` (stereo unspecified), 8.24 µM.
On the same count and under the same terms, under `COc1ccc(CNc2cc(OC)c(OC)c(OC)c2)cc1` stands greater than 48.5 µM.
In the case of `COc1ccccc1C1C(C(=O)Nc2ccccc2)=C(C)NC(C)=C1C(=O)Nc1ccccc1`, the TGI is greater than 100 µM.
On the same count and under the same terms, under `OCc1ccc2[n+](c1)CCC1c3ccccc3NC21` (stereo unspecified) stands greater than 300 µM.
As to `COc1cccc(-c2cc(=O)c3cc(N(C)C)ccc3[nH]2)c1`, the GI50 was 0.0153 µM and 0.00266 µM.
In the case of `CCCCCCCCCCCC(=O)CC(=O)c1c(O)cccc1O`, the TGI is 34.4 µM.
Same read-out and setting: under `CN(C(=O)C12C3C4C1C1C2C3C41C(=O)C(C)(C)C)C(C)(C)C` (stereo unspecified) stands greater than 100 µM.
Compound `Cc1cc2c(cc1C)[n+](=O)c(C(=O)CC(=O)C(=O)Nc1c(C(C)C)cccc1C(C)C)c(C)n2[O-]` returned a TGI greater than 100 µM.
The compound `COc1ccc2cc1Oc1ccc(cc1)CC1c3cc(c(OC)cc3CCN1C)Oc1c3c(cc4c1C(C2)N(C)CC4)OCO3` (stereo unspecified) had a TGI of 30 µM.
Compound `COc1ccc(OC)c(NC(=O)C(=O)C(C(C)=O)c2nc3ccc(Cl)cc3[nH]c2=O)c1` (stereo unspecified) registered a TGI greater than 50 µM.
Still for that read-out and setting: under `N#CC(C(=N/O)/C(=N/O)C(C#N)c1ccc(Cl)cc1)c1ccc(Cl)cc1` (stereo unspecified) stands greater than 100 µM.

For another test, the system named is SK-MEL-28 melanoma. In words: growth of human tumour cells (NCI), 48 h.
For the compound `CC1(Cl)C(=O)NC(=O)N(C2CC(N=[N+]=[N-])C(CO)O2)C1N=[N+]=[N-]` (stereo unspecified), the TGI is greater than 100 µM.
As for `COc1ccc2ccc3c(c2c1)CN1CCc2cc(OC)c(OC)cc2C1C3` (stereo unspecified), the TGI was greater than 100 µM.
Regarding `Cc1nc2cccc([N+](=O)[O-])c2c(NCCCN(C)C)c1C`, the TGI was greater than 100 µM.
Regarding `OCCC1(O)CCC(O)CC1` (stereo unspecified), the TGI was greater than 100 µM.
Same read-out and setting: under `CCCCNC1=C(C(=O)OCC)C(=O)CO1` stands greater than 100 µM.
As for `CC(C)CC(=O)[O-].CC(C)CC(=O)[O-].N.N.N.N.[Co+3].[O-][Cl+3]([O-])([O-])[O-]`, the GI50 was greater than 100 µM and the TGI was greater than 100 µM.
Regarding `COc1cc(C2c3cc4c(cc3C(NCC(O)CO)C3COC(=O)[C@H]23)OCO4)cc(OC)c1OC` (stereo partly specified), the TGI is greater than 100 µM.
The same measure, in the same setting: under `COC(=O)CC(=O)C[P+](c1ccccc1)(c1ccccc1)c1ccccc1` stands greater than 218 µM; under `CCCCN(CCCC)C(=O)C(=O)C(C#N)c1ccc(C)cc1` (stereo unspecified), greater than 100 µM; under `Cc1ccc(S(=O)(=O)C(CC(=O)N2CCCC2)C(=O)c2ccccc2)cc1` (stereo unspecified), greater than 100 µM.
Same read-out and setting: under `CC1(C)CC(/C=C2/OC(=O)c3ccccc32)=C(C#N)C(=O)O1` stands greater than 100 µM.
Same read-out and setting: for `Cc1nc2c(nc1Cl)nc(Oc1ccc(Cl)cc1)c1ccccc12` the value was greater than 100 µM; for `CC(=O)Nc1ccccc1Sc1ccccc1`, greater than 100 µM.
For `COC(=O)C[C@H]1CCC2(OCCO2)[C@]1(C)C(=O)OC`, the TGI was greater than 100 µM.
The compound `CCCCCCCCCC[C@@H](O)[C@@H]1CC[C@H]([C@H]2CC[C@@H]([C@@H](O)CCCCCCCCCC[C@H]3CC(CC(C)=O)C(=O)O3)O2)O1` (stereo partly specified) showed a TGI of 24.4 µM.
Consider `C=C(CN1CCc2ccccc2C1)c1ccc(C(=O)Nc2cnccn2)cc1`, for which the GI50 was 25.4 µM and the TGI was greater than 100 µM.
Turning to `CCOc1ccc2c(c1)[n+]([O-])c(S(=O)(=O)c1ccc(C)cc1)c(N)[n+]2[O-]`, the TGI is greater than 100 µM.
Still for that read-out and setting: under `CC12CC[C@@H](C(C)(C)O)C1[C@@H](O)CC1(C)C2CCC2[C@@]3(C)CC[C@H](O)C(C)(C)C3C(O)C[C@]21C` (stereo partly specified) stands 40.2 µM; under `CCOC(=O)NC(=O)c1cn(C2OC(COC(=O)CCCCCCCCC(=O)OCC3OC(n4cc(C(=O)NC(=O)OCC)c(=O)[nH]c4=O)C(O)C3O)C(O)C2O)c(=O)[nH]c1=O` (stereo unspecified), greater than 100 µM; under `Cc1ccc(C)c(NC(=O)CC/C(=N\NC(=O)C(=O)NN)C(C)C(=O)c2ccc(O)cc2)c1` (stereo unspecified), greater than 100 µM.
On the same count and under the same terms, under `COc1ccc(CNc2cc(OC)c(OC)c(OC)c2)cc1` stands greater than 100 µM.
On to `COc1ccccc1C1C(C(=O)Nc2ccccc2)=C(C)NC(C)=C1C(=O)Nc1ccccc1`, for which the TGI was greater than 100 µM.
`OCc1ccc2[n+](c1)CCC1c3ccccc3NC21` (stereo unspecified) gave a TGI greater than 300 µM.
Consider `COc1cccc(-c2cc(=O)c3cc(N(C)C)ccc3[nH]2)c1`, for which the GI50 is 0.0209 µM and 0.00582 µM; the TGI is greater than 100 µM.
The compound `CCCCCCCCCCCC(=O)CC(=O)c1c(O)cccc1O` yielded a TGI of 44.1 µM.
Same read-out and setting: under `CN(C(=O)C12C3C4C1C1C2C3C41C(=O)C(C)(C)C)C(C)(C)C` (stereo unspecified) stands greater than 100 µM.
